How the values were obtained:
HL-60 [1] = experiment: Growth inhibition of human HL60 cells at 1 uM after 3 days; type: functional; conditions: HL-60, 72 h
HL-60 [2] = experiment: Growth inhibition of human HL60 cells at 10 uM after 3 days; type: functional; conditions: HL-60, 72 h

## C[C@]12C[C@H](NC3CCCC3)[C@@H](O)C[C@@H]1CC[C@@H]1[C@@H]2CC[C@]2(C)[C@@H](O)CC[C@@H]12
HL-60 [1]
  inhibition at 1 µM: 0%
HL-60 [2]
  inhibition at 10 µM: 0%

## CC(C)(C)N[C@H]1C[C@@]2(C)[C@@H](CC[C@@H]3[C@@H]2CC[C@]2(C)[C@@H](O)CC[C@@H]32)C[C@@H]1O
HL-60 [1]
  inhibition at 1 µM: 0%
HL-60 [2]
  inhibition at 10 µM: 0.5%

## C[C@]12C[C@H](N3CCCCCC3)[C@@H](O)C[C@@H]1CC[C@@H]1[C@@H]2CC[C@]2(C)[C@@H](O)CC[C@@H]12
HL-60 [1]
  inhibition at 1 µM: 0%
HL-60 [2]
  inhibition at 10 µM: 3.4%

## C[C@]12C[C@H](N3CCN(C(=O)c4ccccc4)CC3)[C@@H](O)C[C@@H]1CC[C@@H]1[C@@H]2CC[C@]2(C)[C@@H](O)CC[C@@H]12
HL-60 [1]
  inhibition at 1 µM: 0%
HL-60 [2]
  inhibition at 10 µM: 11.4%

## CC(C)C(=O)N1CCN([C@H]2C[C@@]3(C)[C@@H](CC[C@@H]4[C@@H]3CC[C@]3(C)[C@@H](O)CC[C@@H]43)C[C@@H]2O)CC1
HL-60 [1]
  inhibition at 1 µM: 0%
HL-60 [2]
  inhibition at 10 µM: 1.1%

## C[C@]12C[C@H](N3CCN(c4ccccn4)CC3)[C@@H](O)C[C@@H]1CC[C@@H]1[C@@H]2CC[C@]2(C)[C@@H](O)CC[C@@H]12
HL-60 [1]
  inhibition at 1 µM: 0%
HL-60 [2]
  inhibition at 10 µM: 26.1%

## C[C@]12C[C@H](NCC34CC5CC(CC(C5)C3)C4)[C@@H](O)C[C@@H]1CC[C@@H]1[C@@H]2CC[C@]2(C)[C@@H](O)CC[C@@H]12
HL-60 [1]
  inhibition at 1 µM: 6.4%
HL-60 [2]
  inhibition at 10 µM: 85.8%

## CCCCCCCCCCCCCCCCN[C@H]1C[C@@]2(C)[C@@H](CC[C@@H]3[C@@H]2CC[C@]2(C)[C@@H](O)CC[C@@H]32)C[C@@H]1O
HL-60 [1]
  inhibition at 1 µM: 0%
HL-60 [2]
  inhibition at 10 µM: 94.8%

## CCCC(=O)N1CCN([C@H]2C[C@@]3(C)[C@@H](CC[C@@H]4[C@@H]3CC[C@]3(C)[C@@H](O)CC[C@@H]43)C[C@@H]2O)CC1
HL-60 [1]
  inhibition at 1 µM: 0%
HL-60 [2]
  inhibition at 10 µM: 4.6%

## CC(C)CN1CCN([C@H]2C[C@@]3(C)[C@@H](CC[C@@H]4[C@@H]3CC[C@]3(C)[C@@H](O)CC[C@@H]43)C[C@@H]2O)CC1
HL-60 [1]
  inhibition at 1 µM: 0%
HL-60 [2]
  inhibition at 10 µM: 5%

## C[C@]12C[C@H](N3CCNCC3)[C@@H](O)C[C@@H]1CC[C@@H]1[C@@H]2CC[C@]2(C)[C@@H](O)CC[C@@H]12
HL-60 [1]
  inhibition at 1 µM: 6.9%
HL-60 [2]
  inhibition at 10 µM: 5.9%

## CCCCCN1CCN([C@H]2C[C@@]3(C)[C@@H](CC[C@@H]4[C@@H]3CC[C@]3(C)[C@@H](O)CC[C@@H]43)C[C@@H]2O)CC1
HL-60 [1]
  inhibition at 1 µM: 0%
HL-60 [2]
  inhibition at 10 µM: 7.7%

## CCCCCCCCCN[C@H]1C[C@@]2(C)[C@@H](CC[C@@H]3[C@@H]2CC[C@]2(C)[C@@H](O)CC[C@@H]32)C[C@@H]1O
HL-60 [1]
  inhibition at 1 µM: 3.9%
HL-60 [2]
  inhibition at 10 µM: 89.9%

## CCCCCN[C@H]1C[C@@]2(C)[C@@H](CC[C@@H]3[C@@H]2CC[C@]2(C)[C@@H](O)CC[C@@H]32)C[C@@H]1O
HL-60 [1]
  inhibition at 1 µM: 0%
HL-60 [2]
  inhibition at 10 µM: 0%

## C[C@]12C[C@H](N3CCOCC3)[C@@H](O)C[C@@H]1CC[C@@H]1[C@@H]2CC[C@]2(C)[C@@H](O)CC[C@@H]12
HL-60 [1]
  inhibition at 1 µM: 14.9%
HL-60 [2]
  inhibition at 10 µM: 8.7%

## CN1CCN([C@H]2C[C@@]3(C)[C@@H](CC[C@@H]4[C@@H]3CC[C@]3(C)[C@@H](O)CC[C@@H]43)C[C@@H]2O)CC1
HL-60 [1]
  inhibition at 1 µM: 0%
HL-60 [2]
  inhibition at 10 µM: 16.2%

## CCCCOCCCN[C@H]1C[C@@]2(C)[C@@H](CC[C@@H]3[C@@H]2CC[C@]2(C)[C@@H](O)CC[C@@H]32)C[C@@H]1O
HL-60 [1]
  inhibition at 1 µM: 4.8%
HL-60 [2]
  inhibition at 10 µM: 26.5%

## C[C@]12C[C@H](N3CCN(C(=O)C4CCCCC4)CC3)[C@@H](O)C[C@@H]1CC[C@@H]1[C@@H]2CC[C@]2(C)[C@@H](O)CC[C@@H]12
HL-60 [1]
  inhibition at 1 µM: 0%
HL-60 [2]
  inhibition at 10 µM: 3.9%

## CCCCCCCCCCCN[C@H]1C[C@@]2(C)[C@@H](CC[C@@H]3[C@@H]2CC[C@]2(C)[C@@H](O)CC[C@@H]32)C[C@@H]1O
HL-60 [1]
  inhibition at 1 µM: 0%
HL-60 [2]
  inhibition at 10 µM: 96.3%

## C[C@]12C[C@H](NC3CCCCC3)[C@@H](O)C[C@@H]1CC[C@@H]1[C@@H]2CC[C@]2(C)[C@@H](O)CC[C@@H]12
HL-60 [1]
  inhibition at 1 µM: 0%
HL-60 [2]
  inhibition at 10 µM: 0%

## CCCCCCCCCCN[C@H]1C[C@@]2(C)[C@@H](CC[C@@H]3[C@@H]2CC[C@]2(C)[C@@H](O)CC[C@@H]32)C[C@@H]1O
HL-60 [1]
  inhibition at 1 µM: 0%
HL-60 [2]
  inhibition at 10 µM: 96.9%

## CCN(CC)[C@H]1C[C@@]2(C)[C@@H](CC[C@@H]3[C@@H]2CC[C@]2(C)[C@@H](O)CC[C@@H]32)C[C@@H]1O
HL-60 [1]
  inhibition at 1 µM: 0%
HL-60 [2]
  inhibition at 10 µM: 6.7%

## CCCC(C)N1CCN([C@H]2C[C@@]3(C)[C@@H](CC[C@@H]4[C@@H]3CC[C@]3(C)[C@@H](O)CC[C@@H]43)C[C@@H]2O)CC1 (some centres not stated)
HL-60 [1]
  inhibition at 1 µM: 0%
HL-60 [2]
  inhibition at 10 µM: 9.2%

## C[C@]12C[C@H](N3CCN(CCO)CC3)[C@@H](O)C[C@@H]1CC[C@@H]1[C@@H]2CC[C@]2(C)[C@@H](O)CC[C@@H]12
HL-60 [1]
  inhibition at 1 µM: 0.8%
HL-60 [2]
  inhibition at 10 µM: 17.7%

## CCCCCCCCCCCN(CCCCCCCCCCC)[C@H]1C[C@@]2(C)[C@@H](CC[C@@H]3[C@@H]2CC[C@]2(C)[C@@H](O)CC[C@@H]32)C[C@@H]1O
HL-60 [1]
  inhibition at 1 µM: 11.7%
HL-60 [2]
  inhibition at 10 µM: 7%

## CCCCCCCCC(=O)N1CCN([C@H]2C[C@@]3(C)[C@@H](CC[C@@H]4[C@@H]3CC[C@]3(C)[C@@H](O)CC[C@@H]43)C[C@@H]2O)CC1
HL-60 [1]
  inhibition at 1 µM: 8.1%
HL-60 [2]
  inhibition at 10 µM: 99%

## C[C@]12C[C@H](N3CCN(Cc4ccccc4)CC3)[C@@H](O)C[C@@H]1CC[C@@H]1[C@@H]2CC[C@]2(C)[C@@H](O)CC[C@@H]12
HL-60 [1]
  inhibition at 1 µM: 0%
HL-60 [2]
  inhibition at 10 µM: 25.7%

## CCCCN[C@H]1C[C@@]2(C)[C@@H](CC[C@@H]3[C@@H]2CC[C@]2(C)[C@@H](O)CC[C@@H]32)C[C@@H]1O
HL-60 [1]
  inhibition at 1 µM: 0%
HL-60 [2]
  inhibition at 10 µM: 3.1%

## CC(C)CN[C@H]1C[C@@]2(C)[C@@H](CC[C@@H]3[C@@H]2CC[C@]2(C)[C@@H](O)CC[C@@H]32)C[C@@H]1O
HL-60 [1]
  inhibition at 1 µM: 0%
HL-60 [2]
  inhibition at 10 µM: 0%

## C[C@]12C[C@H](N3CCCCC3)[C@@H](O)C[C@@H]1CC[C@@H]1[C@@H]2CC[C@]2(C)[C@@H](O)CC[C@@H]12
HL-60 [1]
  inhibition at 1 µM: 0%
HL-60 [2]
  inhibition at 10 µM: 1.5%

## CC(C)CCN[C@H]1C[C@@]2(C)[C@@H](CC[C@@H]3[C@@H]2CC[C@]2(C)[C@@H](O)CC[C@@H]32)C[C@@H]1O
HL-60 [1]
  inhibition at 1 µM: 0%
HL-60 [2]
  inhibition at 10 µM: 3%

## C[C@]12C[C@H](N3CCCNCC3)[C@@H](O)C[C@@H]1CC[C@@H]1[C@@H]2CC[C@]2(C)[C@@H](O)CC[C@@H]12
HL-60 [1]
  inhibition at 1 µM: 1%
HL-60 [2]
  inhibition at 10 µM: 21.4%

## C[C@]12C[C@H](N3CCN(c4ccccc4)CC3)[C@@H](O)C[C@@H]1CC[C@@H]1[C@@H]2CC[C@]2(C)[C@@H](O)CC[C@@H]12
HL-60 [1]
  inhibition at 1 µM: 7%
HL-60 [2]
  inhibition at 10 µM: 36.6%

## CCCCCCN[C@H]1C[C@@]2(C)[C@@H](CC[C@@H]3[C@@H]2CC[C@]2(C)[C@@H](O)CC[C@@H]32)C[C@@H]1O
HL-60 [1]
  inhibition at 1 µM: 0%
HL-60 [2]
  inhibition at 10 µM: 6.9%

## C[C@]12C[C@H](C3NCCc4ccccc43)[C@@H](O)C[C@@H]1CC[C@@H]1[C@@H]2CC[C@]2(C)[C@@H](O)CC[C@@H]12 (some centres not stated)
HL-60 [1]
  inhibition at 1 µM: 3.4%
HL-60 [2]
  inhibition at 10 µM: 29.6%

## CCCCC(=O)N1CCN([C@H]2C[C@@]3(C)[C@@H](CC[C@@H]4[C@@H]3CC[C@]3(C)[C@@H](O)CC[C@@H]43)C[C@@H]2O)CC1
HL-60 [1]
  inhibition at 1 µM: 0%
HL-60 [2]
  inhibition at 10 µM: 7.4%

## CCC(=O)N1CCN([C@H]2C[C@@]3(C)[C@@H](CC[C@@H]4[C@@H]3CC[C@]3(C)[C@@H](O)CC[C@@H]43)C[C@@H]2O)CC1
HL-60 [1]
  inhibition at 1 µM: 0%
HL-60 [2]
  inhibition at 10 µM: 0%

## CC(=O)N1CCN([C@H]2C[C@@]3(C)[C@@H](CC[C@@H]4[C@@H]3CC[C@]3(C)[C@@H](O)CC[C@@H]43)C[C@@H]2O)CC1
HL-60 [1]
  inhibition at 1 µM: 0%
HL-60 [2]
  inhibition at 10 µM: 0%

## C[C@]12C[C@H](n3cccn3)[C@@H](O)C[C@@H]1CC[C@@H]1[C@@H]2CC[C@]2(C)[C@@H](O)CC[C@@H]12
HL-60 [1]
  inhibition at 1 µM: 8.4%
HL-60 [2]
  inhibition at 10 µM: 12.8%

## CCCN[C@H]1C[C@@]2(C)[C@@H](CC[C@@H]3[C@@H]2CC[C@]2(C)[C@@H](O)CC[C@@H]32)C[C@@H]1O
HL-60 [1]
  inhibition at 1 µM: 0%
HL-60 [2]
  inhibition at 10 µM: 0.4%

## CCCCCCCN[C@H]1C[C@@]2(C)[C@@H](CC[C@@H]3[C@@H]2CC[C@]2(C)[C@@H](O)CC[C@@H]32)C[C@@H]1O
HL-60 [1]
  inhibition at 1 µM: 10.1%
HL-60 [2]
  inhibition at 10 µM: 82.3%

## CCCCCCCCCN(CCCCCCCCC)[C@H]1C[C@@]2(C)[C@@H](CC[C@@H]3[C@@H]2CC[C@]2(C)[C@@H](O)CC[C@@H]32)C[C@@H]1O
HL-60 [1]
  inhibition at 1 µM: 9.8%
HL-60 [2]
  inhibition at 10 µM: 41.5%

## C[C@]12C[C@H](NC3CCCCCC3)[C@@H](O)C[C@@H]1CC[C@@H]1[C@@H]2CC[C@]2(C)[C@@H](O)CC[C@@H]12
HL-60 [1]
  inhibition at 1 µM: 0%
HL-60 [2]
  inhibition at 10 µM: 0%

## C[C@]12C[C@H](N3CCN(c4ccc([N+](=O)[O-])cc4)CC3)[C@@H](O)C[C@@H]1CC[C@@H]1[C@@H]2CC[C@]2(C)[C@@H](O)CC[C@@H]12
HL-60 [1]
  inhibition at 1 µM: 12.5%
HL-60 [2]
  inhibition at 10 µM: 92.2%

## CCN1CCN([C@H]2C[C@@]3(C)[C@@H](CC[C@@H]4[C@@H]3CC[C@]3(C)[C@@H](O)CC[C@@H]43)C[C@@H]2O)CC1
HL-60 [1]
  inhibition at 1 µM: 0%
HL-60 [2]
  inhibition at 10 µM: 4.8%

## C[C@]12C[C@H](N3CCN(Cc4ccc5c(c4)OCO5)CC3)[C@@H](O)C[C@@H]1CC[C@@H]1[C@@H]2CC[C@]2(C)[C@@H](O)CC[C@@H]12
HL-60 [1]
  inhibition at 1 µM: 0%
HL-60 [2]
  inhibition at 10 µM: 26.1%
